Tests used:
MDA-MB-468 cells [1] = assay: Mitochondrial membrane potential, JC-1 staining, flow cytometry; format: cell-based
Experimental: The cells treated with the mitochondrial uncoupler CCCP (carbonyl cyanide m-chlorophenylhydrazone), which mediates the dissipation of mitochondrial membrane potential, served as positive control for the detection of mitochondrial dysfunction. […] Unstained control represented in Fig. 10A has been used for gating purposes. […]

[2] = Stability study by time-dependent UV-vis spectroscopy; format: physicochemical
Experimental: The stability studies of complex IrL1 were conducted in […] different solvents, i.e. aqueous DMSO (H2O : DMSO = 9 : 1) and aqueous GSH medium (Fig. 3) respectively in presence or absence of different concentrations of NaCl. It is essential that the complexes remain stable in the biological environments of cells, and thus the stability studies were performed. […] It has been reported that many cancer cells become resistant to various drugs by increasing their cellular glutathione level.[28]
For doing the cell culture the cells were retained in DMEM media (Gibco), added with 10% fetal bovine serum (Himedia, India), 1% penicillin and streptomycin and 1% of Glutmax (Gibco, Thermo Scientific, USA) at 37°C in 5% CO2. […]
In vitro cytotoxicity study was measured by standard MTT assay protocol.1 First the prepared complexes (IrL1-IrL5) were dissolved in 0.1% DMSO followed by dilution with DMEM medium. […] Then the resultant suspension was kept on micro vibrator for 10 min and the absorbance was recorded at λ = 570 nm in ELISA plate reader. […] The data were represented as the growth inhibition percentage i.e. % growth inhibition = 100 − [(AD × 100)/AB], where AD, measured absorbance in wells which contain samples and AB, measured absorbance for blank wells (cells with a medium and a vehicle). […]

MDA-MB-468 cells [3] = assay: Cell cycle analysis; format: cell-based; settings: 5 μM
Experimental: The IrL1 complex exerted a G0/G1 cell cycle arrest at the highest tested concentration of 5 μM. The effects of various concentrations of IrL1 complex on the cell cycle of breast cancer cell line MDA-MB-468 cells were further explored by cell cycle analysis.

BSA = target: T1, BSA (Bos taurus, UniProt P02769); assay: BSA binding, tryptophan emission quenching; design: species or system bovine
T1 construct: purchased Sigma Aldrich Chemical Limited
Experimental: Upon excitation at 295 nm, the emission intensity of BSA at λem = 350 nm decreased gradually on increasing the complex concentration, which confirmed that the interaction between complex IrL1 with BSA had occurred, as observed in Fig. 8. The Stern–Volmer quenching constant of these complexes with BSA (KBSA) was calculated using the Stern–Volmer equation and the corresponding Stern–Volmer plots (Fig. 8, inset). The binding affinity (K) of the complexes was calculated from Scatchard plot analysis (Fig. 8, inset). […]
Kapp × [Complex]50 = kEtBr × [EtBr]⋯⋯⋯(iii) […]
Stern-Volmer equation was followed for quantitative determination of the Stern-Volmer quenching constant (K SV).5 Origin (8.5) software was used to plot the fluorescence data to obtain linear plot of I0/I vs. [complex]. The value of KSV was calculated from the following […]
Where I0 = fluorescence intensity in absence of complex and I = fluorescence intensities in presence of complex of concentration [Q].
We are acquainted with the fact that serum albumin proteins are the main component. […] After each addition, the solutions were shaken slowly for 5 min before recording the fluorescence at a wavelength of 295 nm (λex = 295 nm). A gradual decrease in fluorescence intensity of BSA at λ = 340 nm was observed upon increasing the concentration of complex, which confirmed […]
that the interaction between the complex and BSA was happened. Stern-Volmer equation was employed to quantitatively determine the quenching constant (K BSA). […]
Where I0 is the fluorescence intensity of BSA in absence of complex and I indicates the fluorescence intensity of BSA in presence of complex of concentration [Q], τ0 = lifetime of the tryptophan in BSA found as 1 x 10-8 and kq is the quenching constant. […]
To allow the phase separation, the solution was centrifuged for 10 min at 3000 rpm. […] Aliquots of the aqueous and octanol layers were pipetted out separately and the absorbances were measured with UV-Vis spectrophotometer using proper dilution. […]

T1 sequence (P02769 25-607): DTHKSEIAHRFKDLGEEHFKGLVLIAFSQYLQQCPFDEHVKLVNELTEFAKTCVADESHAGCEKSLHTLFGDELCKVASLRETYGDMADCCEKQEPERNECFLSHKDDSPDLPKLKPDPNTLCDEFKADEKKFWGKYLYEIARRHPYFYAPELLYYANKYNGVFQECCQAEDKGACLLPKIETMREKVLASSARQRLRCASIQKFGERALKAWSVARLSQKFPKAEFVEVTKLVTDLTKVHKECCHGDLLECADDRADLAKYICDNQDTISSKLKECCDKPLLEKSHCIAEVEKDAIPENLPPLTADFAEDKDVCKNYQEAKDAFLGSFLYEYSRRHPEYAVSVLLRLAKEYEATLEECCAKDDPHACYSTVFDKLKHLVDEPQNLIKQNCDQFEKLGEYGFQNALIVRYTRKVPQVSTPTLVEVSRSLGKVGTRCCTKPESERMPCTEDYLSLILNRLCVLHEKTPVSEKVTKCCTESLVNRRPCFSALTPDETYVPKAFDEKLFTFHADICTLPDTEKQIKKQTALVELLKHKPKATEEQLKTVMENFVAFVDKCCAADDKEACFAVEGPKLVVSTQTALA

- decrease in absorbance ([2]; aqueous DMSO (H2O : DMSO = 9 : 1), after 24 h): 15–30%
- K, binding affinity (Scatchard plot) (BSA; BSA): 6.3e+06 M⁻¹
- kq, bimolecular quenching constant (BSA; calculated from KSV and τ0 (1 × 10^−8 s)): 5 × 10^12 M^−1 S^−1
- KBSA, Stern–Volmer quenching constant with BSA (BSA; excitation 295 nm): 50000 M⁻¹
Substance: [Iridium(III)-Cp*-2-(naphthalen-1-yl)-1H-imidazo[4,5-f][1,10]phenanthroline]PF6 [IrL1]
- cells with damaged mitochondria (JC-1 monomers) (MDA-MB-468 cells [1]; 1 μM): 27.86%
- cells with damaged mitochondria (JC-1 monomers) (MDA-MB-468 cells [1]; 3 μM): ~47.52%
- cells with damaged mitochondria (JC-1 monomers) (MDA-MB-468 cells [1]; 5 μM): 67.02%
- effect of GSH on stability ([2]; excess (10 eq.) glutathione, time-dependent UV spectroscopy): GSH didn't have much impact on the stability
- G0/G1 phase cells (MDA-MB-468 cells [3]): 53.32%
- G2/M phase cells (MDA-MB-468 cells [3]): ~18.37%
- S phase cells (MDA-MB-468 cells [3]): ~28.32%
